What was measured:
Type in all cases: cell-based
M3 muscarinic receptor = target: T1, M3 muscarinic receptor (Homo sapiens, UniProt P20309); test: Functional mobilization of intracellular calcium (FLIPR), M3-CHO cells; conditions: for M3 Activity: M3-CHO cells, calcium mobilization (FLIPR)
T1 construct: expressed in transfected cells; host or cells: CHO (M3-CHO)
Method in brief: (§1)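 FLIPR fluorescence (ex 488, em 540 nm) recorded 60 sec after compound addition to dye-loaded CHO cells. Agonist mode: compound alone. Antagonist mode: 15 min compound pre-incubation, then carbachol at EC80, or co-application. Efficacy expressed as % of maximal carbachol response.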

M1 muscarinic receptor = target: T2, M1 muscarinic receptor (Homo sapiens, UniProt P11229); test: Functional mobilization of intracellular calcium (FLIPR), M1-CHO cells; conditions: for M1 Activity: M1-CHO cells, calcium mobilization (FLIPR)
T2 construct: expressed in transfected cells; host or cells: CHO (M1-CHO)
T2 sequence (P11229 1-460): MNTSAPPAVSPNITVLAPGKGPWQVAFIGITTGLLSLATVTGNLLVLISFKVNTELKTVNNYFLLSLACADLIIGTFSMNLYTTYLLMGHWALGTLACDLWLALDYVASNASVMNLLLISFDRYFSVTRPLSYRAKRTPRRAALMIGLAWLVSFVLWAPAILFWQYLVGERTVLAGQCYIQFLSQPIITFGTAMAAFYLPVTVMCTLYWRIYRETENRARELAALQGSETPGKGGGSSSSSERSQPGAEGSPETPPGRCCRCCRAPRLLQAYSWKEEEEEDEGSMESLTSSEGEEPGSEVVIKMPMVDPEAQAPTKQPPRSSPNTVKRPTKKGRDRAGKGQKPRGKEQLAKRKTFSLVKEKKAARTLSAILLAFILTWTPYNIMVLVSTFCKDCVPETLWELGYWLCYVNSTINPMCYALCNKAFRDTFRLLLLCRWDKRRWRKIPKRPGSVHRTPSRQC
Method in brief: as §1

M4 muscarinic receptor = target: T3, M4 muscarinic receptor (Homo sapiens, UniProt P08173); test: Functional mobilization of intracellular calcium (FLIPR), M4-CHO cells; conditions: for M4 Activity: M4-CHO cells, calcium mobilization (FLIPR)
T3 construct: expressed in transfected cells; host or cells: CHO (M4-CHO)
T3 sequence (P08173 1-479): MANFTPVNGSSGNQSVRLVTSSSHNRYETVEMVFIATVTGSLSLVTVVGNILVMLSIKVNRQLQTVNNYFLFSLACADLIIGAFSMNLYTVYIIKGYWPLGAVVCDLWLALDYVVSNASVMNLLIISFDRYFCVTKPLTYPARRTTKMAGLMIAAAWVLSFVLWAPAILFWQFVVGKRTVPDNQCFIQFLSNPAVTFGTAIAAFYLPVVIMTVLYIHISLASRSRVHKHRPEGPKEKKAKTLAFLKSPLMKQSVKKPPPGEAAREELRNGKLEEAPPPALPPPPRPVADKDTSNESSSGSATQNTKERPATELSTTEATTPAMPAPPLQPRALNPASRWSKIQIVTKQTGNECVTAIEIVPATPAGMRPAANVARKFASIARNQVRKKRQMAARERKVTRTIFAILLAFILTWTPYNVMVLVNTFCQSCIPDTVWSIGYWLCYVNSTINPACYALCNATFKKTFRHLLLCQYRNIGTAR
Method in brief: as §1

M2 muscarinic receptor = target: T4, M2 muscarinic receptor (Homo sapiens, UniProt P08172); test: Functional mobilization of intracellular calcium (FLIPR), M2-CHO cells; conditions: for M2 Activity: M2-CHO cells, calcium mobilization (FLIPR)
T4 construct: expressed in transfected cells; host or cells: CHO (M2-CHO)
T4 sequence (P08172 1-466): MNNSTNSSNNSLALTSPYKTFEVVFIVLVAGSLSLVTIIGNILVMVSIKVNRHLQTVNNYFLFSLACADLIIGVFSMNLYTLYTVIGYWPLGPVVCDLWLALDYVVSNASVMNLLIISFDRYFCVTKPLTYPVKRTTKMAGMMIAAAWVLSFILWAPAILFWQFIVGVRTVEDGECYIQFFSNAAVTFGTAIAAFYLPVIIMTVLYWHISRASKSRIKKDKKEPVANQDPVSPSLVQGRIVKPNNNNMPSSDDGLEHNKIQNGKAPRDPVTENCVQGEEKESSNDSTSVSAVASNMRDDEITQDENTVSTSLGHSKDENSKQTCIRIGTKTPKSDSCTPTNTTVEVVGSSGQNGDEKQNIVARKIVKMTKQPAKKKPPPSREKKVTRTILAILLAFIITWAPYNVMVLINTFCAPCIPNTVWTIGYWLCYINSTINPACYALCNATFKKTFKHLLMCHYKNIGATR
Method in brief: as §1

[1] = 100% efficacy = maximum response obtained with the Carbachol control
[2] = 100% efficacy is the maximum response obtained with the Carbachol control

T1 sequence (P20309 whole entry): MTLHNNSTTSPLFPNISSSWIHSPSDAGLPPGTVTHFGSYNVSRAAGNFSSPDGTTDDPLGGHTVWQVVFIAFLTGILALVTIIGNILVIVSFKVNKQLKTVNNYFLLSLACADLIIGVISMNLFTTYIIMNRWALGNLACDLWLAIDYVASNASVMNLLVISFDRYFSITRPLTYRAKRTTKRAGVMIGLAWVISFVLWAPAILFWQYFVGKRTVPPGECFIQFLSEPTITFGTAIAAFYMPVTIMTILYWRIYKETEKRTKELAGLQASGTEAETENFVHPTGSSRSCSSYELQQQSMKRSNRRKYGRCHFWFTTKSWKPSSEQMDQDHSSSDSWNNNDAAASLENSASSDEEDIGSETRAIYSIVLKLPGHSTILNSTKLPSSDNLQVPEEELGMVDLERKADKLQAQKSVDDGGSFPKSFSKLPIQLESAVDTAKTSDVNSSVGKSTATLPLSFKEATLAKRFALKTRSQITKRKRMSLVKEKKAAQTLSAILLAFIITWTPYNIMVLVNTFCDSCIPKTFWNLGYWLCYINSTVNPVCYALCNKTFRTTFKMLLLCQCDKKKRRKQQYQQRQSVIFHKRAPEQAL

| SMILES | Emax (M3 muscarinic receptor; [1]) | M3 Activity (M3 muscarinic receptor) | Emax (M1 muscarinic receptor; [1]) | M1 Activity (M1 muscarinic receptor) | Emax (M4 muscarinic receptor; [1]) | M4 Activity (M4 muscarinic receptor) | Emax (M2 muscarinic receptor; [1]) | M2 Activity (M2 muscarinic receptor) | M3 Efficacy (M3 muscarinic receptor; [1]) | M1 Efficacy (M1 muscarinic receptor; [1]) | M4 Efficacy (M4 muscarinic receptor; [1]) | M2 Efficacy (M2 muscarinic receptor; [1]) | Emax (M3 muscarinic receptor; [2]) | Emax (M1 muscarinic receptor; [2]) | Emax (M4 muscarinic receptor; [2]) | Emax (M2 muscarinic receptor; [2]) |
| --- | --- | --- | --- | --- | --- | --- | --- | --- | --- | --- | --- | --- | --- | --- | --- | --- |
| CCCC1CCC(N2CCC(F)(c3cc(Cl)ccc3OC)CC2)CC1 (stereo not drawn) [Compound 365] | < 25% | + (activity was measured to be greater than 5.0 μM) | 25 to 100% | + (activity was measured to be greater than 5.0 μM) | 25 to 100% | + (activity was measured to be greater than 5.0 μM) | 25 to 100% | + (activity was measured to be greater than 5.0 μM) |  |  |  |  |  |  |  |  |
| COc1ccc(-c2cccc(F)c2)cc1C1CCN([C@H]2C[C@H]3CC[C@H]2C3)CC1 [Compound 366] | < 25% | + (activity was measured to be greater than 5.0 μM) | < 25% | + (activity was measured to be greater than 5.0 μM) | 25 to 100% | + (activity was measured to be greater than 5.0 μM) | < 25% | + (activity was measured to be greater than 5.0 μM) |  |  |  |  |  |  |  |  |
| COc1ccc(Cl)cc1C1(F)CCN([C@H]2C[C@H]3CC[C@H]2C3)CC1 [Compound 367] | < 25% | + (activity was measured to be greater than 5.0 μM) | < 25% | + (activity was measured to be greater than 5.0 μM) | < 25% | + (activity was measured to be greater than 5.0 μM) | < 25% | + (activity was measured to be greater than 5.0 μM) |  |  |  |  |  |  |  |  |
| CCOC(=O)N1CCC(N2CCC(F)(c3cc(Cl)ccc3OC)CC2)CC1 [Compound 368] |  | + (activity was measured to be greater than 5.0 μM) |  | ++ (activity was measured to be from 1.0 μM to 5.0 μM) |  | +++ (activity was measured to be less than 1.0 μM) |  | ++ (activity was measured to be from 1.0 μM to 5.0 μM) | + (efficacy was calculated to be less than 25%) | ++ (efficacy was calculated to be from 100% to 25%) | ++ (efficacy was calculated to be from 100% to 25%) | ++ (efficacy was calculated to be from 100% to 25%) |  |  |  |  |
| COc1ccccc1C1CCN(CC2CCOC2)CC1 (stereo not drawn) [Compound 369] | < 25% | + (activity was measured to be greater than 5.0 μM) | 25 to 100% | + (activity was measured to be greater than 5.0 μM) | 25 to 100% | ++ (activity was measured to be from 1.0 μM to 5.0 μM) | < 25% | + (activity was measured to be greater than 5.0 μM) |  |  |  |  |  |  |  |  |
| COc1ccccc1C1CCN(C2CCC(C3CCC(=O)CC3)CC2)CC1 (stereo not drawn) [Compound 370] | < 25% | + (activity was measured to be greater than 5.0 μM) | < 25% | + (activity was measured to be greater than 5.0 μM) | 25 to 100% | ++ (activity was measured to be from 1.0 μM to 5.0 μM) | < 25% | + (activity was measured to be greater than 5.0 μM) |  |  |  |  |  |  |  |  |
| COc1ccc(F)cc1C1CCN(C2CC3CCC2C3)CC1 (stereo not drawn) [Compound 371] | < 25% | + (activity was measured to be greater than 5.0 μM) | 25 to 100% | ++ (activity was measured to be from 1.0 μM to 5.0 μM) | 25 to 100% | +++ (activity was measured to be less than 1.0 μM) | 25 to 100% | ++ (activity was measured to be from 1.0 μM to 5.0 μM) |  |  |  |  |  |  |  |  |
| COc1ccc(Cl)cc1C1CCN(C2(C)CCOCC2)CC1 [Compound 372] |  | + (activity was measured to be greater than 5.0 μM) |  | ++ (activity was measured to be from 1.0 μM to 5.0 μM) |  | +++ (activity was measured to be less than 1.0 μM) |  | ++ (activity was measured to be from 1.0 μM to 5.0 μM) |  |  |  |  | < 25% | 25 to 100% | 25 to 100% | 25 to 100% |
| COc1ccccc1C1(C#N)CCN(CC2CCOCC2)CC1 [Compound 373] |  | + (activity was measured to be greater than 5.0 μM) |  | + (activity was measured to be greater than 5.0 μM) |  | + (activity was measured to be greater than 5.0 μM) |  | + (activity was measured to be greater than 5.0 μM) |  |  |  |  | < 25% | < 25% | 25 to 100% | < 25% |
| COc1ccccc1C1CCN(C2CCCC(O)CCC2)CC1 (stereo not drawn) [Compound 374] |  | + (activity was measured to be greater than 5.0 μM) |  | + (activity was measured to be greater than 5.0 μM) |  | ++ (activity was measured to be from 1.0 μM to 5.0 μM) |  | + (activity was measured to be greater than 5.0 μM) |  |  |  |  | < 25% | < 25% | 25 to 100% | < 25% |
| OC1(c2cc(Cl)cc(Cl)c2)CCN(C2C[C@H]3CC[C@H]2C3)CC1 (stereo partly drawn) [Compound 375] |  | + (activity was measured to be greater than 5.0 μM) |  | + (activity was measured to be greater than 5.0 μM) |  | + (activity was measured to be greater than 5.0 μM) |  | + (activity was measured to be greater than 5.0 μM) |  |  |  |  | < 25% | < 25% | 25 to 100% | < 25% |
| COc1ccc(Cl)cc1C1CCN(C2CCSCC2)CC1 [Compound 376] |  | + (activity was measured to be greater than 5.0 μM) |  | ++ (activity was measured to be from 1.0 μM to 5.0 μM) |  | +++ (activity was measured to be less than 1.0 μM) |  | + (activity was measured to be greater than 5.0 μM) |  |  |  |  | < 25% | 25 to 100% | 25 to 100% | < 25% |

— US7880007B2, “Bicyclic substituted phenyl piperidine modulators of muscarinic receptors” (Vertex Pharmaceuticals Incorporated, priority 2004, dated 2011)
